Data reported in patent publication US5846939A, “Use of a decapeptide with benzodiazepine-type activity for preparing medicines and food supplements” (Societe Cooperative Agricole Laitiere D'Artois Et Des …, priority 1994, dated 1998).

Assays:
[1] = system: anxiety in the rat (elevated plus-maze); test: Tranquilizing activity, elevated plus-maze test; format: in vivo; conditions: intraperitoneal, diazepam 2 mg/kg, hydrolysate 3 mg/kg
From the text: To measure anxiety in the rat, the elevated plus-maze test described by Pellow et al. (14) was used which is based on neophobia in the rat. The plus-maze had four branches that were 50 cm long and 10 cm wide. The two closed branches were surrounded by walls that were 25 cm high (the top being left open for observation) and the entire maze was 50 cm above the ground. The center of the maze communicated with the two open arms and the two closed arms.
The number of times the animal enters the open arms, the closed arms, and the total number of times the rat enters the arms are important parameters. The time passed in each type of branch was also measured. Other parameters (a total of 22) such as the number of times the rat stood up, the number of times it groomed itself (signs of anxiety), or latency of first entry into an open or closed branch were taken into account. […] Its entire behavior was filmed by video camera, which procedure served to avoid errors.
The control group (CTR) received an intraperitoneal injection of solvent only, which solvent was a mixture of gelatin and mannitol (0.5%/5%) dissolved in water. […] The animals in all of the groups were injected half an hour before going to the plus-maze. To begin the experiments, each rat was placed in the center of the apparatus.

[2] = target: central benzodiazepine receptor; conditions: radioligand of the kit; cited from earlier work

CN1C(=O)CN=C(c2ccccc2)c2cc(Cl)ccc21 [diazepam]
number of entries into closed branches [1]: did not vary significantly
number of entries into open branches ([1]; control 1.5±0.3): 3.0±0.4
time spent in the open branches ([1]; control 19.3±4.4 s): 70.1 ± 19.9 s

CN1C(=O)CN=C(c2ccccc2F)c2cc([N+](=O)[O-])ccc21 [^3 H-methyl-flunitrazepam]
Ki [2]: 1.2 nM
